This note sets out measurements from PMC12040169 (PLOS Biology, 2025).

The series in a line: in vitro. Conditions: human, hela cells, % viability.
In general, viability refers to a read-out of living cells in per cent, often relative to untreated cells. On to `Cc1ccc([N+](=O)[O-])cc1NC(=O)CSC1=NCCS1` [CBK267489], for which the viability at 28.5 h, 10 µM turned out to be 88.6%.

As to `O=C1CNC(=O)C2(C/C=C/C[C@H]3COCC[C@H]3N1)CCN(CCOc1ccccc1)CC2` [CBK292077], the viability at 28.5 h, 10 µM is 107%.

Regarding `Nc1ccc2cc(-c3ccsc3)cnc2n1` [CBK081167], the viability at 28.5 h, 10 µM was 101%.

Consider `CC1CN(C(=S)Nc2ccc3ccccc3c2)CC(C)O1` (centres unmarked) [CBK004993], for which the viability at 28.5 h, 10 µM is 102%.

For `C[C@@H](Cn1nnc2ccccc21)NC(=O)Cc1ccccc1F` [CBK282305], the viability at 28.5 h, 10 µM is 86.1%.

`Cc1ncccc1COC(=O)N1CCSCC1` [CBK200156]: the viability at 28.5 h, 10 µM stood at 104%.

With `COc1ccc2cc(C(=O)N3CCn4cncc4C3)n(C)c2c1` [CBK304362], the viability at 28.5 h, 10 µM amounted to 98.6%.

On to `O=C1N[C@@]2(CC3CCC2CC3C(=O)NC2CC2)Nc2ccccc21` (some centres unmarked) [CBK284454], for which the viability at 28.5 h, 10 µM was 85.9%.

Regarding `O=C(Cc1c[nH]cn1)Nc1cccc2cc[nH]c12` [CBK160097], the viability at 28.5 h, 10 µM stood at 86.2%.

As to `O=C(Nc1ccc(F)cc1)c1ccsc1NS(=O)(=O)Cc1ccccc1[N+](=O)[O-]` [CBK042313], the viability at 28.5 h, 10 µM is 91.7%.

`Cc1cc(C)cc(NC(=O)NCCc2cccs2)c1` [CBK044998]: the viability at 28.5 h, 10 µM is 93.2%.

`CCN(CC)C(=O)CN1CCCN(c2cc(OCCN3C(=O)CCC3=O)ncn2)CC1` [CBK083266T]: the viability at 28.5 h, 10 µM worked out at 102%.

Consider `CCn1cnnc1CNC(=O)N1CCCN(Cc2cccs2)CC1` [CBK305882], for which the viability at 28.5 h, 10 µM was determined as 97.6%.

Consider `CC(=O)Cn1nnnc1C` [CBK020588], for which the viability at 28.5 h, 10 µM came out at 99.6%.

`CN1CCN(CCOC(=O)N2CCCC(C(F)(F)F)C2)CC1` (centres unmarked) [CBK200207]: the viability at 28.5 h, 10 µM was 87.2%.

Turning to `Cn1cc(CNCC2CCCN2c2cccnn2)c(-c2cccnc2)n1` (centres unmarked) [CBK305326], the viability at 28.5 h, 10 µM amounted to 96.2%.

`COc1cncc(-c2cccc(NCC(c3cccnc3)N(C)C)n2)c1` (centres unmarked) [CBK037741]: the viability at 28.5 h, 10 µM was 93.6%.

On to `O=C(Cn1cccc(C(=O)Nc2ccc(F)cc2)c1=O)NC1(c2ccccc2)CCCC1` [CBK286057], for which the viability at 28.5 h, 10 µM was 96.3%.

`CCCNC(=O)c1cc(C2CCCN(Cc3ccccc3)C2)no1` (centres unmarked) [CBK283388]: the viability at 28.5 h, 10 µM stood at 98%.

For `CN(C)CCn1cnc2c1c(=O)[nH]c(=O)n2Cc1ccccc1` [CBK291235], the viability at 28.5 h, 10 µM was determined as 96.9%.

With `Cn1cc(C(=O)N2CCC3(C/C=C/C[C@H]4COCC[C@H]4NC(=O)CNC3=O)CC2)cn1` [CBK292069], the viability at 28.5 h, 10 µM turned out to be 103%.

Consider `CC1CCN(Cc2ccc(-c3ccc(CC(=O)NCc4ccc(C#N)cc4)cn3)cc2)CC1` [CBK158409], for which the viability at 28.5 h, 10 µM turned out to be 93.8%.

In the case of `Oc1cccc2ccc(-n3ccnc3)nc12` [CBK017812], the viability at 28.5 h, 10 µM amounted to 79.3%.

In the case of `Cc1ccc(C(C)C)c(OCC(=O)Nc2cc(-c3nc4ccccc4[nH]3)ccc2C)c1` [CBK268724], the viability at 28.5 h, 10 µM stood at 80.7%.

As for `Nc1ccc(C(=O)Nc2nc3ccccc3s2)cc1` [CBK287608], the viability at 28.5 h, 10 µM stood at 95.9%.

Regarding `COc1ccccc1OCCn1c(=N)n(CC(N)=O)c2ccccc21` [CBK268822C], the viability at 28.5 h, 10 µM worked out at 88.6%.

Take `COc1ccc2c(c1)c(C)c(C(=O)N1CCCCC1CN(C)C)n2C` (centres unmarked) [CBK282190]: the viability at 28.5 h, 10 µM is 90.1%.

With `COc1ccc(NC2=NC(=O)CC(C(=O)Nc3ccc(C)c(C)c3)N2)cc1` (centres unmarked) [CBK269359], the viability at 28.5 h, 10 µM turned out to be 104%.

For the molecule `Cc1ccc2c(c1)OC(C)(C)CC2NS(C)(=O)=O` (centres unmarked) [CBK307620], the viability at 28.5 h, 10 µM stood at 81.5%.

Take `Cc1cc2cn([C@H]3C[C@@H](O)[C@@H](CO)O3)c(=O)nc2o1` [CBK201287]: the viability at 28.5 h, 10 µM came to 96%.

`COc1ccc(C2CCCN2C(=O)CC2CCN(C(=O)CC3CCCCC3)CC2)cc1` (centres unmarked) [CBK286263]: the viability at 28.5 h, 10 µM was determined as 102%.

As for `c1cncc(-c2nccnc2NCc2ccco2)c1` [CBK037204], the viability at 28.5 h, 10 µM was found to be 102%.
